The source of these data is US11986493B2 (University of Pittsburgh—Of the Commonwealth System of …, priority 2013, dated 2024).

Series [1] has as its system hypoxic and normoxic subjects. To be noted: Ingram et al. (Am J. Phsiol. 298:H331-H339 (2010)); cited from earlier work.
For series [2] the following is noted: after inhalation. From the text:
Measurement was made on mixed venous blood using PCW pullback samples at baseline (pre-dose) and at the maximally tolerated dose.

Each structure is given as a SMILES string. Like-named read-outs stand apart in the source and are kept apart here.

In the case of `O=NO` [nitrite, sodium nitrite], in series [1], the “arterial and pulmonary vasodilation” value was “causes arterial and pulmonary vasodilation in hypoxic but not normoxic subjects”. Besides, the plasma nitrite concentration in series [2] (45 mg dose) lay in the range of 5 to 7 µM; in series [2] (90 mg dose), 8 to 10 µM.
